Here are results for three compounds from patent US11213497B2, “Antibiofilm formulations” (ARIZONA BOARD OF REGENTS ON BEHALF OF NORTHERN ARIZONA …, priority 2017, dated 2022).

For data set [1] the following is noted: according to the literature; cited from earlier work.
A further data set deals with MSSA. Briefly: MBEC of geranic acid in solution (Hepes buffer). Particulars: 50 mM Hepes buffer. In kind it is cell-based, Staphylococcus aureus. An excerpt: Neutral species in DES may be uniquely important to potentiate otherwise bioactive IL. […] At this pH, most of the acid is expected to be found in the protonated state (pKa is ˜5-5.5 according to the literature). […] Many different DES can be envisioned with this same platform of 1:1 anion:cation as an EPS disruptor/delivery agent with a neutral acid (or even a completely neutral species such as an isoprenoid hydrocarbon) as a molecule designed to saturate both leaflets of a cellular membrane.

Data set [2] has as its system mammalian skin cell lines.

Procedure for MSSA biofilms: Biofilms of Methicillin-sensitive Staphylococcus aureus (MSSA) were established on the pegs of a biofilm inoculator (Innovotech) according to the manufacturer's instructions. Briefly, a bacterial colony of MSSA was inoculated from an agar streak plate into cation-adjusted Mueller-Hinton broth (5 mL) and grown to confluence overnight in a shaker incubator (37° C., 200 rpm). The confluent culture was then diluted into fresh media (1:100, v:v), and grown to an optical density (OD) of 0.4 (approximately three hours). At this time, the cultures were again diluted into fresh media (1:50, v:v) and 200 μL of the resultant dilution were placed into each well of an Innovotech 96 well biofilm inoculator plate. The inoculator was added to the wells of the culture plate and it was placed in a shaker incubator overnight (37° C., 150 rpm). The spent media was decanted each morning and refreshed with equal volumes of new media, and the inoculator was again placed in a shaker incubator overnight (37° C., 150 rpm). […]
A 10% (v:v) stock solution of each DES in CAMHB was serially diluted into fresh CAMHB in the wells of a 96 well plate. […] MSSA cells were allowed to grow overnight in the shaker incubator and viability was assessed via measurement of optical density at 600 nm using a plate reader (Synergy HT). […]

On to `CC(C)=CCC/C(C)=C/C(=O)O` [geranic acid], for which the pKa in data set [1] is given as 5-5.5. Moreover, the MBEC in the data set with MSSA (pH=6.4, 0.1% Tween 20) is listed as 2.5 % in water; with MSSA (pH=8.4, 0.1% Tween 20) it was greater than 10%.
For the compound choline geranate [CAGE], the “Toxicity to mammalian skin cell lines” value in data set [2] was “generally non-toxic to mammalian skin cell lines”.
As for “Choline Geranate Ionic Liquid [2; CAGE (1:1)]”, the “MBEC (% by volume)” value with MSSA biofilms (2-hour challenge, 72 hr MSSA biofilms, dilutions in CAMHB 0.313-10% (v:v)) is recorded as 5-10 % by volume. Besides, in the data set with MSSA biofilms (in water), the “MBEC against MSSA” value was 5-10%.
